Measurements published in patent publication US20120060834A1, “PHARMACEUTICAL PREPARATION TO BE ADMINISTERED INTO RESPIRATORY ORGANS FOR TREATING OR PREVENTING INFLAMMATORY RESPIRATORY DISEASES, AND METHOD FOR TREATING OR PREVENTING SUCH DISEASES” (Postech Academy-Industry Foundation, priority 2009, published 2012).

Key:
[1] = test system: asthma animal model exhibiting TH1+TH17 immune responses; assay: Therapeutic efficacy of WKYMVm upon systemic administration by intraperitoneal injection in asthma mouse model; assay type: in vivo, BALB/c mice
Protocol: This sensitization was performed on Day 0, 1, 2 and 7. […] Meanwhile, the mice of the positive control were intraperitoneally administered with the same dose of phosphate-buffered saline (PBS). For a negative control, the sensitization on Day 0, 1, 2 and 7 and the challenge on Day 14, 15, 21, and 22 were conducted in the same manner as in the positive control, except that PBS was used instead of the allergen. […]
(§1) Pulmonary inflammation was examined 6 hours (Day 22) and 48 hours (Day 24) after the final administration of the allergen. On Days 22 and 24, after mice were anesthetized by intraperitoneally injecting a mixture of ketamine and xylazine thereto, they were subjected to thoracotomy to expose the trachea into which a catheter was then inserted. After suturing the mice, 1 mL of germ-free PBS was infused twice to wash the airway to give bronchoalveolar lavage fluid (hereinafter referred to as “'BAL fluid”). For analyzing T-lymphocytes in lung tissues, the lung was excised and cells were extracted from local lymph nodes.
(§2) Following centrifugation of the BAL fluid at 3000 rpm and at 4° C. for 10 min, the cell pellet thus formed was suspended in PBS, and rolled on slide using a cytospin and stained with Diff
(§3) Quick. More than 300 inflammatory cells were observed under an optical microscope with […] magnification to determine cell counts by cell types, that is, macrophage, lymphocyte, neutrophil, and eosinophil. In the BAL fluid, the cytokines involved in Th1-mediated inflammation, such as gamma interferon, interferon-g-inducible protein 10 (IP-10), and IL-12, the cytokines involved in Th2-mediated inflammation, such as interleukin IL-4 and IL-13, the cytokines involved in Th17-mediated inflammation, such as IL-17, TNF-α and IL-6, and the cytokines involved in Th2- and Th17-mediated inflammation, such as TGF-13, were quantified using ELISA.
(§4) The excised pulmonary tissue was treated with collagenase type IV (Sigma) to separate cells therefrom. The cells were surface stained with anti-CD3, anti-CD4, and anti-CD8 antibodies (BD Pharmingen), all being conjugated with a fluorescent and the membrane was perforated with Triton, followed by intracellular cytokine staining with anti-IFN-γ, anti-IL-17, anti-IL-10 and anti-IL-4 antibodies. Types of the T lymphocytes introduced into the lung were analyzed using the fluorescence activated cell scanner FACSCalibur (Becton Dickinson).
(§5) After the cells extracted from the lymph nodes were incubated for 72 hours in PBS containing 100 μg/ml OVA, gamma interferon, IL-17 and IL-4, which are the cytokines involved in Th1-, Th17- and Th2-mediated inflammation, were quantified using ELISA.

[2] = test system: asthma animal model exhibiting TH1+TH17 immune responses; assay: Therapeutic efficacy of WKYMVm upon intranasal administration in asthma mouse model; assay type: in vivo, BALB/c mice
Protocol: This sensitization was performed on Day 0, 1, 2 and 7. […] Meanwhile, the mice of the positive control were intraperitoneally administered with the same dose of phosphate-buffered saline (PBS). For a negative control, the sensitization on Day 0, 1, 2 and 7 and the challenge on Day 14, 15, 21, and 22 were conducted in the same manner as in the positive control, except that PBS was used instead of the allergen.
Twenty four hours after the final administration of the allergen (Day 23), the mice were examined for bronchial hypersensitivity to methacholine. In this context, the mice were placed in a chamber and allowed to inhale PBS for 3 min with the aid of a nebulizer, followed by measuring penh (enhanced pause) values for 3 min by means of non-invasive whole body plethysmography (Allmedicus, Korea). Likewise, the mice were allowed to inhale 6.25, 12.5, 25 and 50 mg/ml methacholine PBS sequentially, after which penh values for each concentration were measured. A mean of the penh values measured for 3 min was used as an index of airway obstruction.
as §1, §2, §3, §4, §5
The assay was performed in the same manner as in the Comparative Example, except that WKYMVm was administered intranasally instead of intraperitoneally. […] The other procedure was performed in the same manner as in the Comparative Example.

[3] = target: T1, FPR (formyl peptide receptor) (Homo sapiens, UniProt P21462); details: cited from earlier work
T1 sequence (P21462 1-350): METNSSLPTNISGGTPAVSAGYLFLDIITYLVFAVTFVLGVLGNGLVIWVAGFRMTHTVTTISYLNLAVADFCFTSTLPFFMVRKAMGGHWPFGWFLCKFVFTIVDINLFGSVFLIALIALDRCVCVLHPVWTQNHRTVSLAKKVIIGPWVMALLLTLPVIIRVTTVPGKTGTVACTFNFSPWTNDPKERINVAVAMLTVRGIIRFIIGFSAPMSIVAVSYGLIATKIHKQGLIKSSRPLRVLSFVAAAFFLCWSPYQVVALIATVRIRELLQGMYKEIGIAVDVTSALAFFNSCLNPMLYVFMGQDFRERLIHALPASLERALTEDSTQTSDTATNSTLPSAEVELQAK

For “Trp-Lys-Tyr-Met-Val-D-Met-CONH2 [WKYMVm]”, which “inflammatory cell count in BAL fluid” value ([1]; i.p. 4 mg/kg, Day 22, 6 hours after final allergen, vs sham (positive control), FIG. 2) is on record?
The value was “increase”.

What about the “release of gamma interferon by inflammatory cells separated from pulmonary tissue” value ([1]; i.p. 4 mg/kg, Day 22, FIG. 3a) of the same substance?
Its value is “increased”.

What about the “level of IP-10 in BAL fluid” value ([1]; i.p. 4 mg/kg, Day 22, FIG. 3b) of the same substance?
The value was “increased levels”.

What about the “level of IL-12p40 in BAL fluid” value ([1]; i.p. 4 mg/kg, Day 22, FIG. 3c) of the same substance?
Its value is “increased levels”.

And the “number of IL-17-expressing CD4+ T cells from pulmonary tissues” value ([1]; i.p. 4 mg/kg, Day 22, FIG. 4a)?
Its value is “increase in number”.

And the “level of IL-17 released to BAL fluid” value ([1]; i.p. 4 mg/kg, Day 22, FIG. 4b)?
The value was “increase”.

What about the “level of IL-6 in BAL fluid” value ([1]; i.p. 4 mg/kg, Day 22, FIG. 5a) of the same substance?
The value was “increased levels”.

What about the “level of TNF-α in BAL fluid” value ([1]; i.p. 4 mg/kg, Day 22, FIG. 5b) of the same substance?
Its value is “increased levels”.

What about the “inflammatory cell count in BAL” value ([1]; i.p. 4 mg/kg, Day 24, 48 hours after final allergen, vs sham, FIG. 6) of the same substance?
Its value is “there was a difference”.

What about the “level of IL-12p40 (ELISA)” value ([1]; i.p. 4 mg/kg, Day 24, vs sham, FIG. 7a) of the same substance?
Its value is “no significant differences”.

What about the “level of TGF-β (ELISA)” value ([1]; i.p. 4 mg/kg, Day 24, vs sham, FIG. 7b) of the same substance?
The value was “no significant differences”.

And the “pulmonary/respiratory inflammation (overall conclusion)” value ([1]; systemic (intraperitoneal) administration)?
Its value is “did not ameliorate”.

What about the “suppressive effects on bronchial hypersensitivity and pulmonary inflammation” value ([2]; direct administration via the nasal cavity compared with systemic administration) of the same substance?
The value was “higher suppressive effects”.

What about the “inflammatory cell count of BAL fluid” value ([2]; intranasal 200 μg/kg, Day 22, 6 hours after allergen, vs sham (positive control), FIG. 8) of the same substance?
The value was “no differences”.

And the “release of gamma interferon by immune cells separated from local lymph nodes (in vitro)” value ([2]; intranasal 200 μg/kg, Day 22, vs positive control, FIG. 9a)?
The value was “higher level”.

And the “gamma interferon-expressing CD4+ T cells from pulmonary tissue (count)” value ([2]; intranasal 200 μg/kg, Day 22, vs positive control, FIG. 9b)?
The value was “higher”.

And the “level of gamma interferon in BAL fluid” value ([2]; intranasal 200 μg/kg, Day 22, vs positive control, FIG. 9c)?
Its value is “reduced”.

What about the “IL-17 released by local lymph node immune cells stimulated in vitro with allergen” value ([2]; intranasal 200 μg/kg, Day 22, vs positive control, FIG. 10) of the same substance?
The value was “higher amount”.

And the “IL-17-expressing CD4+ T cells from pulmonary tissues (count)” value ([2]; intranasal 200 μg/kg, Day 22, vs positive control, FIG. 10b)?
Its value is “more numerous”.

And the “level of IL-17 in BAL fluid” value ([2]; intranasal 200 μg/kg, Day 22, vs positive control, FIG. 10c)?
The value was “reduced”.

What about the “expression of Th2 cytokines in T cells of pulmonary tissues” value ([2]; intranasal 200 μg/kg, Day 22, vs positive control, FIG. 11a) of the same substance?
Its value is “reduced”.

And the “expression level of IL-10 in T cells of pulmonary tissues” value ([2]; intranasal 200 μg/kg, Day 22, vs positive control, FIG. 11b)?
Its value is “increased”.

What about the “release of IP-10 in BAL fluid” value ([2]; intranasal 200 μg/kg, Day 22, vs positive control, FIG. 12a) of the same substance?
Its value is “reduced”.

What about the “release of IL-12p40 in BAL fluid” value ([2]; intranasal 200 μg/kg, Day 22, vs positive control, FIG. 12b) of the same substance?
The value was “reduced”.

And the “release of TNF-α in BAL fluid” value ([2]; intranasal 200 μg/kg, Day 22, vs positive control, FIG. 12c)?
Its value is “lower levels”.

And the “level of MCP-1 in BAL fluid” value ([2]; intranasal 200 μg/kg, Day 22, vs positive control, FIG. 12e)?
The value was “lower levels”.

What about the “level of MIP-1a in BAL fluid” value ([2]; intranasal 200 μg/kg, Day 22, vs positive control, FIG. 12f) of the same substance?
The value was “lower levels”.

What about the “release of IL-1β in BAL fluid” value ([2]; intranasal 200 μg/kg, Day 22, vs positive control, FIG. 12d) of the same substance?
Its value is “lower levels”.

And the “release of IL-17 into BAL fluid” value ([2]; intranasal 200 μg/kg, Day 24, vs positive control, FIG. 15)?
The value was “increased”.

And the “release of TGF-β from inflammatory cells (BAL fluid)” value ([2]; intranasal 200 μg/kg, Day 24, vs positive control, FIG. 15b)?
Its value is “significantly reduced”.

What about the “level of IL-12p40 in BAL fluid” value ([2]; intranasal 200 μg/kg, Day 24, vs positive control, FIG. 16a) of the same substance?
The value was “higher levels”.

And the “level of IP-10 in BAL fluid” value ([2]; intranasal 200 μg/kg, Day 24, vs positive control, FIG. 16b)?
Its value is “higher levels”.

What about the “binding to FPR” value [3] of the same substance?
The value was “known to bind”.
